Test results: article PMC7397174, “4-Arylthieno[2,3-b]pyridine-2-carboxamides Are a New Class of Antiplasmodial Agents” (Molecules, 2020)
Where a name gives a salt, the structure may show the parent alone.

Legend:
[1] = in vitro; assay type: cell-based, human; conditions: human, HEK293T Viability at 30 µM [%]
Description: Cytotoxic effects of test compounds on eukaryotic cells were investigated using a HEK293T cell viability assay. First, the cell density of a HEK293T culture was determined. […] The supernatant was then aspirated and fresh culture medium was added to 200 μL into which the test compounds were previously added. All substances were previously dissolved in DMSO. […] The viability of the cells was then examined by adding PrestoBlue® Cell Viability Agent (Invitrogen, Carlsbad, CA, USA). The supernatant was removed, 10% PrestoBlue® was added in preheated PBS and the culture was incubated for 30 min at 37 °C. In cells with an active metabolism, the PrestoBlue dye is reduced, causing it to fluorescence. The fluorescence (λex = 560 nm, λem = 590 nm) was measured in an EnVision Multilable Plate Reader (Perkin Elmer, Waltham, MA, USA; integration time 0.1 sec/well).

[2] = molecular target: rPfGSK-3 (Plasmodium falciparum, UniProt O77344); experiment: KinaseGlo Plus assay for inhibition of PfGSK-3; assay type: biochemical; conditions: 10 µM; remaining activity, calculated on DMSO controls; Table 3; read-out: rPfGSK-3 Activity at 10 µM [%]
[3] = test system: erythrocytic forms of P. falciparum (strain 3D7); experiment: Viability screening of antiplasmodial activity (SYBR-gold DNA quantification, 96 h); assay type: cell-based, Plasmodium falciparum; conditions: for activity at 0.3 µM / activity at 3 µM / IC50: Plasmodium falciparum; for activity at 0.3 µM / activity at 3 µM: 96 h, strain 3D7, calculated on DMSO controls; for activity at 0.3 µM: read-out: Parasitemia (3D7) at 0.3 µM [%]; for activity at 3 µM: read-out: Parasitemia (3D7) at 3 µM [%]; for SI (Selectivity index for 3D7 erythrocytic forms versus HEK293 cells): 3D7 versus HEK293 cells; for IC50: 3D7, strain 3D7, erythrocytic forms; for activity at 3 µM / antiplasmodial activity at the concentration investigated (in words): 3 µM

Chain of rPfGSK-3 (O77344 entry or part of it): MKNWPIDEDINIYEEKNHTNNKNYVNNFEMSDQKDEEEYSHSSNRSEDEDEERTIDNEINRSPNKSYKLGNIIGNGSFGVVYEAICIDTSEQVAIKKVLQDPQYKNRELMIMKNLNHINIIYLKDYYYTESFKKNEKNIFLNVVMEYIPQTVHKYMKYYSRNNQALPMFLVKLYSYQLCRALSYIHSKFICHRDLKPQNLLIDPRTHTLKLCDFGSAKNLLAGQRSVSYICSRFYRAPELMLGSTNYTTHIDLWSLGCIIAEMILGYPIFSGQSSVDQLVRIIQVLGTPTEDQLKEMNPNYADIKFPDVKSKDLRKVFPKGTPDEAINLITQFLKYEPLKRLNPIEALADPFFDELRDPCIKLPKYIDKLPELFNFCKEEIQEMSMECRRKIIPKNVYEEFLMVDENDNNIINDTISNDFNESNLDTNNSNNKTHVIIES

Row | Structure (SMILES) | viability at 48 h, 30 µM [1] | remaining activity at 10 µM [2] | activity at 0.3 µM [3] | activity at 3 µM [3] | SI (Selectivity index for 3D7 erythrocytic forms versus HEK293 cells) [3] | IC50 [3] | IC50 (3D7) [nM] ([3]; strain 3D7, erythrocytic forms) | antiplasmodial activity at the concentration investigated (in words) [3]
1 | N#Cc1c(N)nc2sc(C(=O)Nc3cccc(Cl)c3)c(N)c2c1-c1ccc(N2CCCC2)cc1Cl [Compound 9s, 3,6-Diamino-4-[2-chloro-4-(pyrrolidin-1-yl)phenyl]-N-(3-chlorophenyl)-5-cyanothieno[2,3-b]pyridine-2-carboxamide] | 114 ± 40.3% | 113 ± 15.9% | 78.3 ± 15.2% | 4.8 ± 5% |  |  |  | 
2 | CN(C)CCN(C)c1ccc(-c2c(C#N)c(N)nc3sc(C(=O)Nc4cccc(Cl)c4)c(N)c23)c(Cl)c1 [Compound 9af, 3,6-Diamino-4-(2-chloro-4-{[2-(dimethylamino)ethyl](methyl)amino}phenyl)-N-(3-chlorophenyl)-5-cyanothieno[2,3-b]pyridine-2-carboxamide] | -7.4 ± 6.4% | 107 ± 11.2% | 5.8 ± 4.7% | 4.5 ± 7.4% |  |  |  | 
3 | CC(C)(C)OC(=O)N1CCN(c2ccc(-c3c4c(nc5sc(C(=O)Nc6ccc(Cl)cc6)c(N)c35)CCC4)c(Cl)c2)CC1 [Compound 17a, tert-Butyl 4-(4-{3-amino-2-[(4-chlorophenyl)carbamoyl]-6,7-dihydro-5H-cyclopenta[b]thieno[3,2-e]-pyridin-4-yl}-3-chlorophenyl)piperazine-1-carboxylate] | 93.9 ± 6.5% | 102 ± 4% | 50.5 ± 26.3% | 8 ± 10.2% |  |  |  | 
4 | N#Cc1c(N)nc2sc(C(=O)Nc3ccc(F)cc3)c(N)c2c1-c1ccc(N2CCOCC2)cc1Cl [Compound 9x, 3,6-Diamino-4-(2-chloro-4-morpholinophenyl)-5-cyano-N-(4-fluorophenyl)thieno[2,3-b]pyridine-2-carboxamide] | 86.1 ± 16% | 90.2 ± 8.9% | 59 ± 43.6% | 8.7 ± 6.6% |  |  |  | 
5 | CN(CCNC(=O)OC(C)(C)C)c1ccc(-c2c(C#N)c(N)nc3sc(C(=O)Nc4ccc(F)cc4)c(N)c23)c(Cl)c1 [Compound 9ac, tert-Butyl {2-[(3-chloro-4-{3,6-diamino-5-cyano-2-[(4-fluorophenyl)carbamoyl]thieno[2,3-b]pyridin-4-yl}phenyl)(methyl)amino]ethyl}carbamate] | 55.8 ± 25.1% | 85.7 ± 8.2% | 30.1 ± 14.2% | 7.5 ± 5.9% |  |  |  | 
6 | Cc1cccc(-c2c(C(=O)OC(C)(C)C)c(C)nc3sc(C(=O)Nc4ccc(Cl)cc4)c(N)c23)c1 [Compound 17h, tert-Butyl 3-amino-2-[(4-chlorophenyl)carbamoyl]-6-methyl-4-(3-methylphenyl)thieno[2,3-b]pyridine-5-carboxylate] | < 50% | 106 ± 5.3% | 11.8 ± 12.3% | 2.3 ± 14.5% |  |  |  | 
7 | Cc1nc2sc(C(=O)Nc3ccc(Cl)cc3)c(N)c2c(-c2ccccc2)c1C(=O)OC(C)(C)C [Compound 17g, tert-Butyl 3-amino-2-[(4-chlorophenyl)carbamoyl]-6-methyl-4-phenylthieno[2,3-b]pyridine-5-carboxylate] | 56.9 ± 31.3% | 101 ± 5.5% | 11.7 ± 10.1% | 9.8 ± 15.1% | >100 | 25.3 nM | two-digit nanomolar range | 
8 | N#Cc1c(N)nc2sc(C(=O)Nc3ccccc3Cl)c(N)c2c1-c1cccc(F)c1 [Compound 9b, 3,6-Diamino-N-(2-chlorophenyl)-5-cyano-4-(3-fluorophenyl)thieno[2,3-b]pyridine-2-carboxamide] | 101 ± 19.6% | 102 ± 16.5% | 96 ± 1.9% | 46 ± 19.7% |  |  |  | 
9 | CN(CCN)c1ccc(-c2c(C#N)c(N)nc3sc(C(=O)Nc4cccc(Cl)c4)c(N)c23)c(Cl)c1 [Compound 9ae, 3,6-Diamino-4-{4-[(2-aminoethyl)(methyl)amino]-2-chlorophenyl}-N-(3-chlorophenyl)-5-cyanothieno-[2,3-b]pyridine-2-carboxamide hydrochloride] | -8.5 ± 7.4% | 101 ± 20.2% | 1.7 ± 4.2% | 2.7 ± 7.8% |  |  |  | 
10 | CCCCCCCNC(=O)c1sc2nc(N)c(C#N)c(-c3cccc(C)c3)c2c1N [Compound 9k, 3,6-Diamino-5-cyano-N-heptyl-4-(3-methylphenyl)thieno[2,3-b]pyridine-2-carboxamide] | 54.3 ± 19.1% | 84.7 ± 10.6% | 72.7 ± 28.2% | 84 ± 27% |  |  |  | 
11 | N#Cc1c(N)nc2sc(C(=O)Nc3ccc(Cl)cc3)c(N)c2c1-c1ccc(N2CCOCC2)cc1Cl [Compound 9v, 3,6-Diamino-4-(2-chloro-4-morpholinophenyl)-N-(4-chlorophenyl)-5-cyanothieno[2,3-b]pyridine-2-carboxamide] | 92.3 ± 18.8% | 91.8 ± 18.7% | 51.8 ± 38.6% | 6.2 ± 6.1% | >20 | 1470 nM |  | 
12 | Cc1cccc(-c2c(C(=O)O)c(C)nc3sc(C(=O)Nc4ccc(Cl)cc4)c(N)c23)c1 [Compound 17i, 3-Amino-2-[(4-chlorophenyl)carbamoyl]-6-methyl-4-(3-methylphenyl)thieno[2,3-b]pyridine-5-carboxylic acid] | 87.6 ± 19.6% | 106 ± 8% | 99.8 ± 18.8% | 62.4 ± 21.5% |  |  |  | only low
13 | Cc1nc2sc(C(=O)Nc3ccc(Cl)cc3)c(N)c2c(-c2ccccc2)c1C(=O)O [Compound 17j, 3-Amino-2-[(4-chlorophenyl)carbamoyl]-6-methyl-4-phenylthieno[2,3-b]pyridine-5-carboxylic acid] | 95.8 ± 9.8% | 108 ± 10.4% | 76.1 ± 23.1% | 97.1 ± 19.9% |  |  |  | no
14 | N#Cc1c(N)nc2sc(C(=O)Nc3cccc(Cl)c3)c(N)c2c1-c1ccc(N2CCOCC2)cc1Cl [Compound 9r, 3,6-Diamino-4-(2-chloro-4-morpholinophenyl)-N-(3-chlorophenyl)-5-cyanothieno[2,3-b]pyridine-2carboxamide] | 105 ± 10% | 108 ± 16.5% | 45.7 ± 17.2% | 2.8 ± 3.6% |  |  |  | 
15 | N#Cc1c(N)nc2sc(C(=O)Nc3ccccc3Cl)c(N)c2c1-c1ccc(N2CCOCC2)cc1Cl [Compound 9u, 3,6-Diamino-4-(2-chloro-4-morpholinophenyl)-N-(2-chlorophenyl)-5-cyanothieno[2,3-b]pyridine-2-carboxamide] | 87 ± 26.7% | 110 ± 6.2% | 74.5 ± 21.2% | 53.1 ± 29.6% |  |  |  | 
16 | N#Cc1c(N)nc2sc(C(=O)Nc3ccccc3Cl)c(N)c2c1-c1ccc(N2CCCC2)cc1Cl [Compound 9t, 3,6-Diamino-4-[2-chloro-4-(pyrrolidin-1-yl)phenyl]-N-(2-chlorophenyl)-5-cyanothieno[2,3-b]pyridine-2-carboxamide] | 99 ± 22.6% | 105 ± 6.6% | 68.9 ± 27.3% | 60.6 ± 23.7% |  |  |  | 
17 | CC(C)(C)OC(=O)N1CCN(c2ccc(-c3c4c(nc5sc(C(=O)Nc6ccc(Cl)cc6)c(N)c35)CCCC4)c(Cl)c2)CC1 [Compound 17k, tert-Butyl 4-(4-{3-amino-2-[(4-chlorophenyl)carbamoyl]-5,6,7,8-tetrahydrothieno[2,3-b]quinolin-4-yl}-3-chlorophenyl)piperazine-1-carboxylate] | 84.3 ± 14.3% | 106 ± 18.7% | 30 ± 24.9% | 2.6 ± 9% |  |  |  | 
18 | CC(C)(C)OC(=O)N1CCN(c2ccc(-c3c(C#N)c(N)nc4sc(C(=O)Nc5cccc(Cl)c5)c(N)c34)c(Cl)c2)CC1 [Compound 9p, tert-Butyl 4-(3-chloro-4-{3,6-diamino-2-[(3-chlorophenyl)carbamoyl]-5-cyanothieno[2,3-b]pyridin-4-yl}phenyl)piperazine-1-carboxylate] | 104 ± 14.1% | 111 ± 12.1% | 48.3 ± 18% | 5.4 ± 3.2% |  |  |  | 
19 | Cc1cccc(-c2c(C#N)c(N)nc3sc(C(=O)Nc4ccc(F)cc4)c(N)c23)c1 [Compound 9g, 3,6-Diamino-5-cyano-N-(4-fluorophenyl)-4-(3-methylphenyl)thieno[2,3-b]pyridine-2-carboxamide] | 67.8 ± 8.1% | 74.8 ± 21.7% | 63.8 ± 16.5% | 3.1 ± 2.7% |  |  |  | 
20 | N#Cc1c(N)nc2sc(C(=O)Nc3ccc(F)cc3)c(N)c2c1-c1cccc(Cl)c1 [Compound 9d, 3,6-Diamino-4-(3-chlorophenyl)-5-cyano-N-(4-fluorophenyl)thieno[2,3-b]pyridine-2-carboxamide] | 83 ± 21.6% | 69.7 ± 16.6% | 88.5 ± 17.6% | 3.5 ± 3.5% |  |  |  | 
21 | CN(C)CCN(C)c1ccc(-c2c(C#N)c(N)nc3sc(C(=O)Nc4ccc(F)cc4)c(N)c23)c(Cl)c1 [Compound 9ab, 3,6-Diamino-4-(2-chloro-4-{[2-(dimethylamino)ethyl](methyl)amino}phenyl)-5-cyano-N-(4-fluorophenyl)thieno[2,3-b]pyridine-2-carboxamide] | -1.4 ± 13.1% | 112 ± 13.9% | 16.7 ± 19.5% | 1.6 ± 11% |  |  |  | 
